Data from patent publication US20060110803A1 (Crucell Holland B.V., priority 2003, published 2006).

Each sequence was assayed on antibodies in sera of individuals which have been and/or are infected by SARS-CoV (SARS-green, SARS-yellow, 1a, 1b, 2, 6, 37, 62, London).
Type: binding, human

Sequence	recognition by sera of SARS-CoV infected individuals, looped/cyclic form	recognition by sera of SARS-CoV infected individuals, linear form
AKNLNESLIDLQELG [SEQ ID NO:1186]	recognized in looped/cyclic form	
AKTSVDCNMYICGDS [SEQ ID NO:742]		recognized in linear form
ALNTLVKQLSSNFGA [SEQ ID NO:968]	recognized in looped/cyclic form	
ALVSGTATAGWTFGA [SEQ ID NO:886]		recognized in linear form
AQALNTLVKQLSSNF [SEQ ID NO:966]	recognized in looped/cyclic form	
ATAGWTFGAGAALQI [SEQ ID NO:892]		recognized in linear form
CNMYICGDSTECANL [SEQ ID NO:748]		recognized in linear form
CTPPALNCYWPLNDY [SEQ ID NO:495]	recognized in looped/cyclic form	
DCNMYICGDSTECAN [SEQ ID NO:747]		recognized in linear form
DKVEAEVQIDRLITG [SEQ ID NO:995]	recognized in looped/cyclic form	
DKYFKNHTSPDVDLG [SEQ ID NO:1149]	recognized in looped/cyclic form	
DPLQPELDSFKEELD [SEQ ID NO:1137]	recognized in looped/cyclic form	
DRLNEVAKNLNESLI [SEQ ID NO:1180]	recognized in looped/cyclic form	
DSFKEELDKYFKNHT [SEQ ID NO:1144]	recognized in looped/cyclic form	
DVVNQNAQALNTLVK [SEQ ID NO:960]	recognized in looped/cyclic form	
ELDKYFKNHTSPDVD [SEQ ID NO:1147]	recognized in looped/cyclic form	
ELDSFKEELDKYFKN [SEQ ID NO:1142]	recognized in looped/cyclic form	
ESLTTTSTALGKLQD [SEQ ID NO:946]	recognized in looped/cyclic form	
EVAKNLNESLIDLQE [SEQ ID NO:1184]	recognized in looped/cyclic form	
EVMPVSMAKTSVDCN [SEQ ID NO:735]	recognized in looped/cyclic form	
FIAGLIAIVMVTILL [SEQ ID NO:1216]	recognized in looped/cyclic form	

Sequence	recognition by sera of SARS-CoV infected individuals, looped/cyclic form	recognition by sera of SARS-CoV infected individuals, linear form
FIFLLFLTLTSGSDL [SEQ ID NO:41]	recognized in looped/cyclic form	
FKNHTSPDVDLGDIS [SEQ ID NO:1152]	recognized in looped/cyclic form	
FLLFLTLTSGSDLDR [SEQ ID NO:43]	recognized in looped/cyclic form	
FLTLTSGSDLDRCTT [SEQ ID NO:46]	recognized in looped/cyclic form	
FNGLTVLPPLLTDDM [SEQ ID NO:865]	recognized in looped/cyclic form	
FSPDGKPCTPPALNC [SEQ ID NO:488]		recognized in linear form
GFIAGLIAIVMVTIL [SEQ ID NO:1215]	recognized in looped/cyclic form	
GSDLDRCTTFDDVQA [SEQ ID NO:52]	recognized in looped/cyclic form	
GTATAGWTFGAGAAL [SEQ ID NO:890]		recognized in linear form
GVYYPDEIFRSDTLY [SEQ ID NO:78]	recognized in looped/cyclic form	
HTSPDVDLGDISGIN [SEQ ID NO:1155]	recognized in looped/cyclic form	
HTSSMRGVYYPDEIF [SEQ ID NO:72]	recognized in looped/cyclic form	
ICGDSTECANLLLQY [SEQ ID NO:752]		recognized in linear form
IFLLFLTLTSGSDLD [SEQ ID NO:42]	recognized in looped/cyclic form	
IINNTVYDPLQPELD [SEQ ID NO:1130]	recognized in looped/cyclic form	
INNTVYDPLQPELDS [SEQ ID NO:1131]	recognized in looped/cyclic form	
IQESLTTTSTALGKL [SEQ ID NO:944]	recognized in looped/cyclic form	
ITTEVMPVSMAKTSV [SEQ ID NO:732]	recognized in looped/cyclic form	
KFNGLTVLPPLLTDD [SEQ ID NO:864]	recognized in looped/cyclic form	
KNHTSPDVDLGDISG [SEQ ID NO:1153]	recognized in looped/cyclic form	
KNLNESLIDLQELGK [SEQ ID NO:1187]	recognized in looped/cyclic form	

Sequence	recognition by sera of SARS-CoV infected individuals, looped/cyclic form	recognition by sera of SARS-CoV infected individuals, linear form
KTSVDCNMYICGDST [SEQ ID NO:743]		recognized in linear form
KYFKNHTSPDVDLGD [SEQ ID NO:1150]	recognized in looped/cyclic form	
LDKVEAEVQIDRLIT [SEQ ID NO:994]	recognized in looped/cyclic form	
LDKYFKNHTSPDVDL [SEQ ID NO:1148]	recognized in looped/cyclic form	
LDSFKEELDKYFKNH [SEQ ID NO:1143]	recognized in looped/cyclic form	
LFLTLTSGSDLDRCT [SEQ ID NO:45]	recognized in looped/cyclic form	
LGFIAGLIAIVMVTI [SEQ ID NO:1214]	recognized in looped/cyclic form	
LLFLTLTSGSDLDRC [SEQ ID NO:44]	recognized in looped/cyclic form	
LNEVAKNLNESLIDL [SEQ ID NO:1182]	recognized in looped/cyclic form	
LQDVVNQNAQALNTL [SEQ ID NO:958]	recognized in looped/cyclic form	
LQPELDSFKEELDKY [SEQ ID NO:1139]	recognized in looped/cyclic form	
LTLTSGSDLDRCTTF [SEQ ID NO:47]	recognized in looped/cyclic form	
LTSGSDLDRCTTFDD [SEQ ID NO:49]	recognized in looped/cyclic form	
LTTTSTALGKLQDVV [SEQ ID NO:948]	recognized in looped/cyclic form	
LVSGTATAGWTFGAG [SEQ ID NO:887]		recognized in linear form
MFIFLLFLTLTSGSD [SEQ ID NO:40]	recognized in looped/cyclic form	
MRGVYYPDEIFRSDT [SEQ ID NO:76]	recognized in looped/cyclic form	
MYICGDSTECANLLL [SEQ ID NO:750]		recognized in linear form
NAQALNTLVKQLSSN [SEQ ID NO:965]	recognized in looped/cyclic form	
NEVAKNLNESLIDLQ [SEQ ID NO:1183]	recognized in looped/cyclic form	
NGLTVLPPLLTDDMI [SEQ ID NO:866]	recognized in looped/cyclic form	

Sequence	recognition by sera of SARS-CoV infected individuals, looped/cyclic form	recognition by sera of SARS-CoV infected individuals, linear form
NHTSPDVDLGDISGI [SEQ ID NO:1154]	recognized in looped/cyclic form	
NLNESLIDLQELGKY [SEQ ID NO:1188]	recognized in looped/cyclic form	
NMYICGDSTECANLL [SEQ ID NO:749]		recognized in linear form
NNTVYDPLQPELDSF [SEQ ID NO:1132]	recognized in looped/cyclic form	
NQNAQALNTLVKQLS [SEQ ID NO:963]	recognized in looped/cyclic form	
NTVYDPLQPELDSFK [SEQ ID NO:1133]	recognized in looped/cyclic form	
NVPFSPDGKPCTPPA [SEQ ID NO:485]		recognized in linear form
PCTPPALNCYWPLND [SEQ ID NO:494]	recognized in looped/cyclic form	
PELDSFKEELDKYFK [SEQ ID NO:1141]	recognized in looped/cyclic form	
PFSPDGKPCTPPALN [SEQ ID NO:487]		recognized in linear form
PLQPELDSFKEELDK [SEQ ID NO:1138]	recognized in looped/cyclic form	
PPALNCYWPLNDYGF [SEQ ID NO:497]	recognized in looped/cyclic form	
QALNTLVKQLSSNFG [SEQ ID NO:967]	recognized in looped/cyclic form	
QDVVNQNAQALNTLV [SEQ ID NO:959]	recognized in looped/cyclic form	
QESLTTTSTALGKLQ [SEQ ID NO:945]	recognized in looped/cyclic form	
QHTSSMRGVYYPDEI [SEQ ID NO:71]	recognized in looped/cyclic form	
QIQESLTTTSTALGK [SEQ ID NO:943]	recognized in looped/cyclic form	
QKFNGLTVLPPLLTD [SEQ ID NO:863]	recognized in looped/cyclic form	
QNAQALNTLVKQLSS [SEQ ID NO:964]	recognized in looped/cyclic form	
